The values that follow are results of earlier work, collected in article PMC8244136, “Integrin αvβ6-targeted MR molecular imaging of breast cancer in a xenograft mouse model” (Cancer Imaging, 2021).

On series [1], the source says:
(§1) Because of the significance of integrin αvβ6 in tumorigenesis and tumor progression, many pioneering experimental studies have focused on αvβ6-targeted ligands, including peptides and non-peptide inhibitors. More recently, a novel sub-nanomolar αvβ6-specific ligand, the nonapeptide cyclo [FRGDLAFp(NMe)K] (referred to as cFK-9) was identified, which is characterized by the RXDLXXL motif sequence.

A further series has as its system integrin αvβ6. The note with it: read-out: αvβ6 binding affinity IC50.
Text: as §1

A further series relates to α5β1. Conditions: selectivity against other integrins.
Text: as §1

Another series deals with αIIbβ3. The note with it: selectivity against other integrins.
Text: as §1

In a further series the test system is αvβ3. The note with it: selectivity against other integrins.
Text: as §1

A further series concerns αvβ5. The note with it: selectivity against other integrins.
Text: as §1

By IC50 is commonly meant the midpoint of a concentration-inhibition curve. For “cyclo [FRGDLAFp(NMe)K] (head to tail) [cFK-9, sub-nanomolar αvβ6-specific ligand, cyclic RGD nonapeptide with RXDLXXL motif]”, the “stability in human plasma” value in series [1] is listed as “very stable”. In addition, the IC50 in the series on integrin αvβ6 is 0.26 nM; in the series on α5β1 it was 73 nM; with αIIbβ3, greater than 1000 nM; in the series with αvβ3 it was 632 nM; in the series with αvβ5, greater than 1000 nM.
